Source: patent US20260028365A1 (BIOGEN MA INC., priority 2022, published 2026)

Experiments:
JH2 domain of human Tyk2 = JH2 domain of human Tyk2 (Homo sapiens (Human), UniProt P29597); assay: JH2 Biochemical Assay (TR-FRET probe displacement); assay type: binding; conditions: JH2 domain of human Tyk2, TR-FRET probe displacement
Tyk2 = Tyk2 (Homo sapiens (Human), UniProt P29597); assay: pSTAT4 Cell Assay (MSD, NK92 cells); assay type: cell-based; conditions: MSD
Tyk2, sequence (P29597 whole entry): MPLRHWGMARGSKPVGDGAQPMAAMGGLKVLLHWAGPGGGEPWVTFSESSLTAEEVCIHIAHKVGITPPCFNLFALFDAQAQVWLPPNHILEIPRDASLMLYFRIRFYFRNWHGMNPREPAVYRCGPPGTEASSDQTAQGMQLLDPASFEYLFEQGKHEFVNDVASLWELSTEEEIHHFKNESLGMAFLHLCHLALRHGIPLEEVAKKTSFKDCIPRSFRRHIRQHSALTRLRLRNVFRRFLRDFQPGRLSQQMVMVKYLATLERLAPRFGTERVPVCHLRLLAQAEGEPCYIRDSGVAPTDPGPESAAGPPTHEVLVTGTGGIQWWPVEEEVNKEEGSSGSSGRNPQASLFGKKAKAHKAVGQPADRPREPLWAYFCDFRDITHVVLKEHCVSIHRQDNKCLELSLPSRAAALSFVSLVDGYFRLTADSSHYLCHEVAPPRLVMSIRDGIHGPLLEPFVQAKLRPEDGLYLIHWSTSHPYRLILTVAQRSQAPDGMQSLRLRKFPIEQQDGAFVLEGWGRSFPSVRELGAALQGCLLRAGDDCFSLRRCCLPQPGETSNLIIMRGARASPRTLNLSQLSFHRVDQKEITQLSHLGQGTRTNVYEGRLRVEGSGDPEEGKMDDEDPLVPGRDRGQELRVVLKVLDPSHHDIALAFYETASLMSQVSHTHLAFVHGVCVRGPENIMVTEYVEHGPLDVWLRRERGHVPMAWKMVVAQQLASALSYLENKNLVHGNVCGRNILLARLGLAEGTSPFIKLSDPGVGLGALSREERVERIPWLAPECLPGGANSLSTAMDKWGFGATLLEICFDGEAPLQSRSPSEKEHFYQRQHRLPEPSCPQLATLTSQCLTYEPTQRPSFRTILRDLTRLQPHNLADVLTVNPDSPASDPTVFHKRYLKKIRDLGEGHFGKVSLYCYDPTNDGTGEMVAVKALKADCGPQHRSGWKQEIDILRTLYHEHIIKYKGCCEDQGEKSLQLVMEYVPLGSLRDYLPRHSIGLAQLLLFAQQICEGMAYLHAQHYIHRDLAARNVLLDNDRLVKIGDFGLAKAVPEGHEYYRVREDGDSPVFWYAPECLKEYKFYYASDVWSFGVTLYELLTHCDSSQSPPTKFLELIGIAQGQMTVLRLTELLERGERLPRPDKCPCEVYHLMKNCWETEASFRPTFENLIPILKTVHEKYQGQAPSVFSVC

JH2 domain of human Tyk2, sequence (P29597 575-876): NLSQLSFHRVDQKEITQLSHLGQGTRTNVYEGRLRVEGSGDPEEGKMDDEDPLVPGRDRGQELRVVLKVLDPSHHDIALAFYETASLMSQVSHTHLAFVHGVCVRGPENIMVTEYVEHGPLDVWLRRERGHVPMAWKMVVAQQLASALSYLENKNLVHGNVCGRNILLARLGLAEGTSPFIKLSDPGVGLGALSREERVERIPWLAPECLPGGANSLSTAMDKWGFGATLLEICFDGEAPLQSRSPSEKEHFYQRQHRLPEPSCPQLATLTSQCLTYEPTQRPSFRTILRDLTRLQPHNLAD

Row | Structure (SMILES) | IC50 (JH2 domain of human Tyk2) [nM] | IC50 (Tyk2) [nM]
1 | COCCn1ncc(-c2cnc(NC(C)=O)cc2Nc2cc(OC3CC3)nc(C(C)(F)F)n2)n1 [Example 587, N-(4-((6-cyclopropoxy-2-(1,1-difluoroethyl)pyrimidin-4-yl)amino)-5-(2-(2-methoxyethyl)-2H-1,2,3-triazol-4-yl)pyridin-2-yl)acetamide] | ≤ 10 | ≤ 10
2 | COCc1ccc(-c2cnc(NC(C)=O)cc2Nc2cncc(OC(F)F)n2)nc1 [Example 588, N-(4′-((6-(difluoromethoxy)pyrazin-2-yl)amino)-5-(methoxymethyl)-[2,3′-bipyridin]-6′-yl)acetamide] | ≤ 10 | 10 to 100
3 | CC(=O)Nc1cc(Nc2cc(C)nc(C(C)(F)F)n2)c(-c2ccccn2)cn1 [Example 591, N-(4′-((2-(1,1-difluoroethyl)-6-methylpyrimidin-4-yl)amino)-[2,3′-bipyridin]-6′-yl)acetamide] | ≤ 10 | ≤ 10
4 | CC(=O)Nc1cc(Nc2cc(C)nc(C(C)(F)F)n2)c(-c2nc(C)co2)cn1 [Example 592, N-(4-((2-(1,1-difluoroethyl)-6-methylpyrimidin-4-yl)amino)-5-(4-methyloxazol-2-yl)pyridin-2-yl)acetamide] | ≤ 10 | 10 to 100
5 | CC(=O)Nc1cc(Nc2cc(C)nc(C(C)(F)F)n2)c(-c2ccc(C)cn2)cn1 [Example 593, N-(4′-((2-(1,1-difluoroethyl)-6-methylpyrimidin-4-yl)amino)-5-methyl-[2,3′-bipyridin]-6′-yl)acetamide] | ≤ 10 | ≤ 10
6 | CC(=O)Nc1cc(Nc2cc(C)nc(C(C)(F)F)n2)c(-c2ncc(C)cn2)cn1 [Example 595, N-(4-((2-(1,1-difluoroethyl)-6-methylpyrimidin-4-yl)amino)-5-(5-methylpyrimidin-2-yl)pyridin-2-yl)acetamide] | ≤ 10 | 10 to 100
7 | CC(=O)Nc1cc(Nc2cc(C)nc(C(C)(F)F)n2)c(-n2ccc(C)n2)cn1 [Example 597, N-(4-((2-(1,1-difluoroethyl)-6-methylpyrimidin-4-yl)amino)-5-(3-methyl-1H-pyrazol-1-yl)pyridin-2-yl)acetamide] | ≤ 10 | 10 to 100
8 | COc1ccc(-c2cnc(NC(C)=O)cc2Nc2cc(C)nc(C(C)(F)F)n2)nc1 [Example 599, N-(4′-((2-(1,1-difluoroethyl)-6-methylpyrimidin-4-yl)amino)-5-methoxy-[2,3′-bipyridin]-6′-yl)acetamide] | ≤ 10 | ≤ 10
9 | CC(=O)Nc1cc(Nc2cc(C)nc(C(C)(F)F)n2)c(-c2cnc(C)o2)cn1 [Example 600, N-(4-((2-(1,1-difluoroethyl)-6-methylpyrimidin-4-yl)amino)-5-(2-methyloxazol-5-yl)pyridin-2-yl)acetamide] | 10 to 100 | 100 to 1000
10 | CC(=O)Nc1cc(Nc2cc(C)nc(C(C)(F)F)n2)c(-c2cn(C)c(C#N)n2)cn1 [Example 601, N-(5-(2-cyanO1-methyl-1H-imidazol-4-yl)-4-((2-(1,1-difluoroethyl)-6-methylpyrimidin-4-yl)amino)pyridin-2-yl)acetamide] | ≤ 10 | ≤ 10
11 | CC(=O)Nc1cc(Nc2cc(C)nc(C(C)(F)F)n2)c(-c2ccn(C(C)C)n2)cn1 [Example 603, N-(4-((2-(1,1-difluoroethyl)-6-methylpyrimidin-4-yl)amino)-5-(1-isopropyl-1H-pyrazol-3-yl)pyridin-2-yl)acetamide] | ≤ 10 | ≤ 10
12 | CC(=O)Nc1cc(Nc2cc(C)nc(C(C)(F)F)n2)c(-c2nccs2)cn1 [Example 605, N-(4-((2-(1,1-difluoroethyl)-6-methylpyrimidin-4-yl)amino)-5-(thiazol-2-yl)pyridin-2-yl)acetamide] | ≤ 10 | 10 to 100
13 | CC(=O)Nc1cc(Nc2cc(C)nc(C(C)(F)F)n2)c(-c2csc(C)n2)cn1 [Example 606, N-(4-((2-(1,1-difluoroethyl)-6-methylpyrimidin-4-yl)amino)-5-(2-methylthiazol-4-yl)pyridin-2-yl)acetamide] | ≤ 10 | ≤ 10
